Test results from patent US20010055590A1, “Method for enhancing myoblast migration and invasion in the context of gene therapy” (priority 1999, published 2001).

What was measured:
mouse myoblasts = assay: Invasion of mouse myoblasts transiently over-expressing MMPs; type: cell-based; details: NAC treatment, n=4
Experimental: Myoblast migration and invasion were examined using a commercially available in vitro cell migration and invasion assay kit (Biocoat, Becton Dickinson, Franklin Lakes, N.J.) as described by Albini et al. (A rapid in vitro assay for quantitating the invasive potential of tumor cells Cancer Res 47:3239-3245, 1987). Myoblasts were grown to approximately 70% confluence, rinsed three times in serum-free DMEM, followed by incubation for 3 hours in 0.2% bovine serum albumin (BSA) in DMEM to eliminate the effects of serum. Cells were then trypsinized and collected by centrifugation. Cells were resuspended in serum-free DMEM at a density of 1×10^5 cells/ml, and 0.5 ml aliquots of cell suspension were added to the top chamber. […] Fibronectin subfragments of 45 KDa (Sigma), 120 kDa (Gibco), 63 kDa (Retronectin, Takara) and 70 KDa (Sigma) were used alone or in combination. The growth factor concentrations used were those which could produce maximal effects as examined in the present studies by extending from values reported by Bischoff (“Chemotaxis of skeletal muscle satellite cells” Devel. Dynamics 208:505-515, 1997). […] The number of cells per field was counted in 10 randomly selected fields and averaged for each condition. […]

human myoblasts = assay: In vitro human myoblast invasion of Matrigel; type: cell-based; details: 24 hour time point
Experimental: Mouse myoblasts were previously isolated from hind limb muscles of 4-6 week old severe combined immunodeficient (SCID) mice and clonally purified from contaminating fibroblasts (Yao et al. “Primary myoblast-mediated gene: transfer: persistent expression of human factor IX in mice” Gene Therapy 1:99-107, 1994). Myoblasts (approximately 1×10^6 cells) were plated on 6 cm tissue culture plates coated with 0.5% gelatin (Sigma, St. Louis, Mo.) and grown in growth medium consisting of Dulbecco's Modified Eagle Medium (DMEM) (Gibco BRL, Gaithersburg Md.) supplemented with 20% fetal bovine serum (FBS; Gibco) and 0.5% chick embryo extract (CEE; Gibco). All animal studies were carried out following the institutional guidelines for ethical animal use. Human myoblasts were isolated using trypsin digestion from abdominal wall or chest wall muscle biopsies, and surgery. […] Myoblast migration and invasion were examined using a commercially available in vitro cell migration and invasion assay kit (Biocoat, Becton Dickinson, Franklin Lakes, N.J.) as described by Albini et al. (A rapid in vitro assay for quantitating the invasive potential of tumor cells Cancer Res 47:3239-3245, 1987). […] The number of cells per field was counted in 10 randomly selected fields and averaged for each condition. […]

In the case of `CC(=O)N[C@@H](CS)C(=O)O` [NAC, N-acetyl cysteine, reference compound], the “invasion relative to non-treated cells” value (mouse myoblasts; MMP-1 over-expressing myoblasts) was 40% and the “invasion relative to non-treated cells” value (mouse myoblasts; MMP-2 over-expressing myoblasts) was 28%.
For human serum fibronectin, the “stimulation of human myoblast invasion of Matrigel over the BSA control” value (human myoblasts) was 2.3 fold.
